Assay results as given in US20240002342A1, “HERBICIDAL DERIVATIVES” (SYNGENTA CROP PROTECTION AG, priority 2020, published 2024).

How the values were obtained:
Assay type in all cases: in vivo
Setaria faberi (SETFA) [1] = experiment: Pre-emergence herbicidal test; details: 1000 g/ha unless otherwise stated
[2] = test system: Ipomoea hederacea (IPOHE); experiment: Pre-emergence herbicidal test; details: 1000 g/ha unless otherwise stated
[3] = test system: Amaranthus retoflexus (AMARE); experiment: Pre-emergence herbicidal test; details: 1000 g/ha unless otherwise stated
[4] = test system: Echinochloa crus-galli (ECHCG); experiment: Pre-emergence herbicidal test; details: 1000 g/ha unless otherwise stated
[5] = test system: Amaranthus retoflexus (AMARE); experiment: Post-emergence herbicidal test; details: 1000 g/ha unless otherwise stated, evaluated after 13 days
Description: (§1) Seeds of a variety of test species are sown in standard soil in pots (Amaranthus retoflexus (AMARE), Solanum nigrum (SOLNI), Setaria faberi (SETFA), Lolium perenne (LOLPE), Echinochloa crus-galli (ECHCG), Ipomoea hederacea (IPOHE)). After 8 days cultivation under controlled conditions in a glasshouse (at 24° C./16° C., day/night; 14 hours light; 65% humidity), the plants are sprayed with an aqueous spray solution derived from the formulation of the technical active ingredient in acetone/water (50:50) solution containing 0.5% Tween 20 (polyoxyethelyene sorbitan monolaurate, CAS RN 9005-64-5). Compounds are applied at 1000 g/ha unless otherwise stated. The test plants are then grown in a glasshouse under controlled conditions in a glasshouse (at 24° C./16° C., day/night; 14 hours light; 65% humidity) and watered twice daily. After 13 days the test is evaluated for the percentage damage caused to the plant. The biological activities are shown in the following table on a five-point scale (5=81-100%; 4=61-80%; 3=41-60%; 2=21-40%; 1=0-20%).

Solanum nigrum (SOLNI) [6] = experiment: Post-emergence herbicidal test; details: 1000 g/ha unless otherwise stated, evaluated after 13 days
Description: as §1

Setaria faberi (SETFA) [7] = experiment: Post-emergence herbicidal test; details: 1000 g/ha unless otherwise stated, evaluated after 13 days
Description: as §1

[8] = test system: Echinochloa crus-galli (ECHCG); experiment: Post-emergence herbicidal test; details: 1000 g/ha unless otherwise stated, evaluated after 13 days
Description: as §1

[9] = test system: Ipomoea hederacea (IPOHE); experiment: Post-emergence herbicidal test; details: 1000 g/ha unless otherwise stated, evaluated after 13 days
Description: as §1

Lolium perenne (LOLPE) [10] = experiment: Post-emergence herbicidal test; details: 1000 g/ha unless otherwise stated, evaluated after 13 days
Description: as §1

Lolium perenne (LOLPE) [11] = experiment: Pre-emergence herbicidal test; details: 1000 g/ha unless otherwise stated
Solanum nigrum (SOLNI) [12] = experiment: Pre-emergence herbicidal test; details: 1000 g/ha unless otherwise stated

SMILES	percentage damage caused to the plant, SETFA (five-point scale) (Setaria faberi (SETFA) [1])	percentage damage caused to the plant, IPOHE (five-point scale) [2]	percentage damage caused to the plant, AMARE (five-point scale) [3]	percentage damage caused to the plant, ECHCG (five-point scale) [4]	percentage damage caused to the plant, AMARE (five-point scale) [5]	percentage damage caused to the plant, SOLNI (five-point scale) (Solanum nigrum (SOLNI) [6])	percentage damage caused to the plant, SETFA (five-point scale) (Setaria faberi (SETFA) [7])	percentage damage caused to the plant, ECHCG (five-point scale) [8]	percentage damage caused to the plant, IPOHE (five-point scale) [9]	percentage damage caused to the plant, LOLPE (five-point scale) (Lolium perenne (LOLPE) [10])	percentage damage caused to the plant, LOLPE (five-point scale) (Lolium perenne (LOLPE) [11])	percentage damage caused to the plant, SOLNI (five-point scale) (Solanum nigrum (SOLNI) [12])
C=Cc1c(C)n(CC)c(-c2ccc(Cl)c(Cl)c2)c(C(=O)OC)c1=O [Compound 4.001, methyl 2-(3,4-dichlorophenyl)-1-ethyl-6-methyl-4-oxo-5-vinyl-pyridine-3-carboxylate]	1 (1=0-20%)	1 (1=0-20%)	1 (1=0-20%)	1 (1=0-20%)	1 (1=0-20%)	1 (1=0-20%)	4 (4=61-80%)	1 (1=0-20%)	2 (2=21-40%)	4 (4=61-80%)	1 (1=0-20%)	1 (1=0-20%)
CCn1c(C)c(C(C)=O)c(=O)c(C(=O)O)c1-c1ccc(Cl)c(Cl)c1 [Compound 2.008, 5-acetyl-2-(3,4-dichlorophenyl)-1-ethyl-6-methyl-4-oxo-pyridine-3-carboxylic acid]	5 (5=81-100%)	3 (3=41-60%)	1 (1=0-20%)	3 (3=41-60%)	2 (2=21-40%)	2 (2=21-40%)	3 (3=41-60%)	3 (3=41-60%)	2 (2=21-40%)	5 (5=81-100%)	4 (4=61-80%)	3 (3=41-60%)
C=Cc1c(C)n(CC)c(-c2ccc(Cl)c(Cl)c2)c(C(=O)O)c1=O [Compound 2.001, 2-(3,4-dichlorophenyl)-1-ethyl-6-methyl-4-oxo-5-vinyl-pyridine-3-carboxylic acid]	4 (4=61-80%)	3 (3=41-60%)	1 (1=0-20%)	3 (3=41-60%)	1 (1=0-20%)	1 (1=0-20%)	4 (4=61-80%)	2 (2=21-40%)	4 (4=61-80%)	4 (4=61-80%)	4 (4=61-80%)	1 (1=0-20%)
C#Cc1c(C)n(CC)c(-c2ccc(Cl)c(Cl)c2)c(C(=O)O)c1=O [Compound 2.005, 2-(3,4-dichlorophenyl)-1-ethyl-5-ethynyl-6-methyl-4-oxo-pyridine-3-carboxylic acid]	4 (4=61-80%)	4 (4=61-80%)	1 (1=0-20%)	1 (1=0-20%)	5 (5=81-100%)	4 (4=61-80%)	5 (5=81-100%)	3 (3=41-60%)	4 (4=61-80%)	5 (5=81-100%)	1 (1=0-20%)	4 (4=61-80%)
CCn1c(C)c(C(=O)O)c(=O)c(C(=O)O)c1-c1ccc(Cl)c(Cl)c1 [Compound 2.010, 2-(3,4-dichlorophenyl)-1-ethyl-6-methyl-4-oxo-pyridine-3,5-dicarboxylic acid]	1 (1=0-20%)	1 (1=0-20%)	1 (1=0-20%)	1 (1=0-20%)	2 (2=21-40%)	2 (2=21-40%)	1 (1=0-20%)	1 (1=0-20%)	2 (2=21-40%)	1 (1=0-20%)	2 (2=21-40%)	3 (3=41-60%)
